Laboratory results from ChEMBL document CHEMBL1201862, “PubChem BioAssay data set” (2004).
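How tested: cells in 96-well plates exposed to compound for 48 hours at five concentrations. Here, GI50 denotes the concentration required for 50% inhibition of growth.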 Active and inactive are the calls of the source. Cut-off read from the data, not from the text of the source: active = GI50 up to about 1.1 µM and inactive = higher.

What was measured:
Test in all cases: NCI tumour cell line growth inhibition, 48 h
[1] = tested on: SF-295
[2] = tested on: EKVX
[3] = tested on: SK-MEL-5
[4] = tested on: PC-3
[5] = tested on: OVCAR-5
[6] = tested on: OVCAR-4
[7] = tested on: SK-MEL-2
[8] = tested on: SN12C
[9] = tested on: NCI-H23
[10] = tested on: RXF 393
[11] = tested on: A498
[12] = tested on: SW-620
[13] = tested on: BT-549
[14] = tested on: HCC 2998
[15] = tested on: HCT-116
[16] = tested on: UACC-257
[17] = tested on: Hs-578T
[18] = tested on: SF-539

Measured: GI50

COC(=O)[C@H](Cc1ccccc1)NC(=O)N1CCCN(C(=O)N[C@@H](Cc2ccccc2)C(=O)OC)CCCN(C(=O)N[C@@H](Cc2ccccc2)C(=O)OC)CCC1
inactive: [1] 17.8 µM | [2] 21.8 µM | [3] 19.4 µM | [4] 15.8 µM | [5] 15.7 µM | [6] 20.7 µM | [7] 15 µM | [8] 19.6 µM | [9] 27.2 µM | [10] 16.9 µM | [11] 19.9 µM | [12] 19.5 µM | [13] 31.1 µM | [14] 18.1 µM | [15] 20.2 µM | [16] 18.2 µM | [17] 20.7 µM

Cc1csc(NCc2ccc(Cl)cc2)n1
inactive: [1] 39.8 µM | [18] > 100 µM | [2] 32.7 µM | [3] 23.7 µM | [4] 37.8 µM | [5] > 100 µM | [6] 37 µM | [7] 50.9 µM | [8] 81.5 µM | [9] 32.3 µM | [10] 25.4 µM | [11] 40.1 µM | [12] 69.7 µM | [13] 62.7 µM | [15] 38.6 µM | [16] 67.8 µM | [17] 54.7 µM

Cn1cc[n+](-c2cc(=O)n(C)c(=O)[n-]2)c1
inactive: [18] > 100 µM | [2] 49.9 µM | [3] 97.7 µM | [4] > 100 µM | [5] > 100 µM | [6] 94.4 µM | [7] > 100 µM | [8] > 100 µM | [9] > 100 µM | [10] > 100 µM | [11] > 100 µM | [12] > 100 µM | [13] > 100 µM | [15] > 100 µM | [16] > 100 µM | [17] 42.8 µM

Cc1nn(-c2ccccc2)c(C)c1/C=N/N=C1\S/C(=C\c2ccc(Cl)cc2)C(=O)N1c1ccccc1
inactive: [1] > 100 µM | [18] > 100 µM | [2] > 100 µM | [3] > 100 µM | [4] > 100 µM | [5] > 100 µM | [6] 2.15 µM | [7] > 100 µM | [8] > 100 µM | [9] 7.38 µM | [10] 12.6 µM | [11] > 100 µM | [12] 9.2 µM | [13] > 100 µM | [15] 9.48 µM | [16] > 100 µM | [17] 5.65 µM

COc1ccc(C2C(C#N)=C(S)N(C3OC(CO)C(O)C(O)C3O)C(c3ccccc3)=C2C(C)=O)cc1 (stereo not drawn)
inactive: [1] > 100 µM | [18] 78.2 µM | [3] 25.1 µM | [4] 48.2 µM | [5] > 100 µM | [6] > 10 µM | [7] 49.7 µM | [8] > 100 µM | [9] > 100 µM | [10] > 100 µM | [11] > 100 µM | [12] 7.18 µM | [13] > 100 µM | [14] 92 µM | [15] 70.6 µM | [16] 77.4 µM | [17] 45.3 µM

CC1C2=C(CCCC2=O)N(c2ccc(Cl)cc2)C2=C1C(=O)CCC2
inactive: [18] > 100 µM | [2] 57.7 µM | [3] 40.6 µM | [4] 60 µM | [5] > 100 µM | [6] 39.1 µM | [8] 83 µM | [9] > 100 µM | [10] 21.6 µM | [11] > 100 µM | [12] > 100 µM | [13] 73.6 µM | [14] > 100 µM | [17] 50.1 µM
